According to ChEMBL document CHEMBL1140941 (J Med Chem, 2009):
The source made the active and inactive calls. The calls are words filed in the database; no cut-off is given here.

How the values were obtained:
[1] = target: T1, Peroxisome proliferator-activated receptor gamma (Homo sapiens) (UniProt P37231); assay: Agonist activity at PPARgamma expressed in african green monkey CV1 cells co-expressing PPRE by luciferase reporter gene assay; format: functional, cell-based; details: CV-1
T1 sequence (whole entry): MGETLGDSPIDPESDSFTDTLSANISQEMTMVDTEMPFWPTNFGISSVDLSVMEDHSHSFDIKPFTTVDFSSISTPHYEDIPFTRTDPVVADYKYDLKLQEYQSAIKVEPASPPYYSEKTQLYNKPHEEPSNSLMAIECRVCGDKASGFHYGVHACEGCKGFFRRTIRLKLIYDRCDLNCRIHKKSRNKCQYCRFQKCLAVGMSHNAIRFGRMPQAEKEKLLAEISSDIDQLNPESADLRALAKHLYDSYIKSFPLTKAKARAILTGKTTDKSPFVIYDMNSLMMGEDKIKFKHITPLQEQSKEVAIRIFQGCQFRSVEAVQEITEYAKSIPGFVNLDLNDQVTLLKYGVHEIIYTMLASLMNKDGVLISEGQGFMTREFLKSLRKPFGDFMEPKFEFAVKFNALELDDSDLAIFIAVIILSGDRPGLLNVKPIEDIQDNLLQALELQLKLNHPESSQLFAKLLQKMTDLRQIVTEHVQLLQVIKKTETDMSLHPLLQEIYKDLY

[2] = target: T2, Mineralocorticoid receptor (Homo sapiens) (UniProt P08235); assay: Antagonist activity at gal-MR expressed in african green monkey CV1 cells co-expressing MH100 at 10 uM by luciferase reporter gene assay; format: functional, cell-based; details: CV-1
T2 sequence (whole entry): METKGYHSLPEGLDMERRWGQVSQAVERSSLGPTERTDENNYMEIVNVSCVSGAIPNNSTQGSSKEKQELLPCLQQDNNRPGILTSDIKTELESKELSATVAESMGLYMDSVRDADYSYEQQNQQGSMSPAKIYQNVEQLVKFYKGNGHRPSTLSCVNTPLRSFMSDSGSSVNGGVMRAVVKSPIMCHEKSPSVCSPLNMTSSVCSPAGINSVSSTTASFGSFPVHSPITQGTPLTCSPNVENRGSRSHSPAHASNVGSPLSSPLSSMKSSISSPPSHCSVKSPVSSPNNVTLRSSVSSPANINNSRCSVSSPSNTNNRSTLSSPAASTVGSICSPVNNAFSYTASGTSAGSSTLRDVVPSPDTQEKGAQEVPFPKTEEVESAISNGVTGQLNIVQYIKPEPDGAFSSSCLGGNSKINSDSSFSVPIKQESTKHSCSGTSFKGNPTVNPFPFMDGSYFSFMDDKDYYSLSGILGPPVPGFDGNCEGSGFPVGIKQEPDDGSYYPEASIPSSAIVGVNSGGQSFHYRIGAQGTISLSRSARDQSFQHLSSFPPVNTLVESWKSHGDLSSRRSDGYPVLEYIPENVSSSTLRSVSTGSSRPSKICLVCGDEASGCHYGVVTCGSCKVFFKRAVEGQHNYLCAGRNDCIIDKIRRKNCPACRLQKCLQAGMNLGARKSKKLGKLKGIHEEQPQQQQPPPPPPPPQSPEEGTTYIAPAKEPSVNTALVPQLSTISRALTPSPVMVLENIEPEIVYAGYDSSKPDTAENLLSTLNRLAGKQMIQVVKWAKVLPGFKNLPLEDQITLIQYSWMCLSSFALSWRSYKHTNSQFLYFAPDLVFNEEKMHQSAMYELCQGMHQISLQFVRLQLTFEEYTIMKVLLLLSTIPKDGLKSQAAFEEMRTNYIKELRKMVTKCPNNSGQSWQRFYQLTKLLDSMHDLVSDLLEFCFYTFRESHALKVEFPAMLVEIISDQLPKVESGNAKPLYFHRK

Mus musculus [3] = assay: Reduction of plasma triglyceride level in C57BL/6 mouse at 10 mg/kg, po administered for 7 days measured after 3 hrs; format: ADME, organism-based; design: dose 10 mg/kg, route oral; details: in vivo
[4] = AUC (0 to t) in CD rat at 3 mg/kg, iv; format: ADME, organism-based; design: dose 3 mg/kg, route intravenous; details: plasma
[5] = Tmax in CD rat at 3 mg/kg, po; format: ADME, organism-based; design: dose 3 mg/kg, route oral; details: in vivo
[6] = target: Mineralocorticoid receptor (Homo sapiens, UniProt P08235); assay: Antagonist activity at gal-MR expressed in african green monkey CV1 cells co-expressing MH100 by luciferase reporter gene assay; format: functional, cell-based, CV-1
[7] = target: Estrogen receptor beta (Homo sapiens) (UniProt Q92731); assay: Agonist activity at gal-ERbeta expressed in african green monkey CV1 cells co-expressing MH100 up to 10 uM by luciferase reporter gene assay relative to control; format: functional, cell-based; details: CV-1
[8] = Cmax in CD rat at 3 mg/kg, po; format: ADME, organism-based; design: dose 3 mg/kg, route oral; details: in vivo
[9] = target: Steroid hormone receptor ERR1 (Homo sapiens) (UniProt P11474); assay: Antagonist activity at ERRalpha expressed in african green monkey CV1 cells by luciferase reporter gene assay; format: functional, cell-based; details: CV-1
[10] = Tmax in CD rat at 3 mg/kg, iv; format: ADME, organism-based; design: dose 3 mg/kg, route intravenous; details: in vivo
[11] = target: Vitamin D3 receptor (Homo sapiens) (UniProt P11473); assay: Agonist activity at VP16-VDR expressed in african green monkey CV1 cells co-expressing MH100 up to 10 uM by luciferase reporter gene assay relative to control; format: functional, cell-based; details: CV-1
Mus musculus [12] = assay: Reduction of plasma triglyceride level in western diet-induced hyperlipidemia LDLR knockout mouse model at 1 mg/kg, po administered for 6 weeks; format: functional; design: scale not given: the % may be the effect or the level left
Rattus norvegicus = assay: Clearance in CD rat assessed as liver blood flow at 3 mg/kg; format: ADME, organism-based; design: dose 3 mg/kg; details: in vivo
[13] = target: T3, Peroxisome proliferator-activated receptor alpha (Homo sapiens) (UniProt Q07869); assay: Agonist activity at PPARalpha expressed in african green monkey CV1 cells co-expressing MH100 up to 10 uM by luciferase reporter gene assay relative to control; format: functional, cell-based; details: CV-1
T3 sequence (whole entry): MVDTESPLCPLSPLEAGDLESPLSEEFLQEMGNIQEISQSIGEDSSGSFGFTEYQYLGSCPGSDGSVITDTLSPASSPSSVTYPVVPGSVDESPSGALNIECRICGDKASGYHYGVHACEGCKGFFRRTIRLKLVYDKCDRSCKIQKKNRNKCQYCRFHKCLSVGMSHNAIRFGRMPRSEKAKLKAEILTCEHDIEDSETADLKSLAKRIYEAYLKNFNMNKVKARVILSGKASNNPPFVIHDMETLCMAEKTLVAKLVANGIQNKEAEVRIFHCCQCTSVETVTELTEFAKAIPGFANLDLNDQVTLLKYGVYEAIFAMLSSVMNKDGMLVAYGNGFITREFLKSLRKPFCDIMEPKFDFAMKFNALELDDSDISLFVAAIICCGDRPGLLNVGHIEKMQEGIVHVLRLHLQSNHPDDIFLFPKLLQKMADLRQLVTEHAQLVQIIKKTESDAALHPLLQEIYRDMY

Sequence of Steroid hormone receptor ERR1 (Homo sapiens) (P11474 whole entry): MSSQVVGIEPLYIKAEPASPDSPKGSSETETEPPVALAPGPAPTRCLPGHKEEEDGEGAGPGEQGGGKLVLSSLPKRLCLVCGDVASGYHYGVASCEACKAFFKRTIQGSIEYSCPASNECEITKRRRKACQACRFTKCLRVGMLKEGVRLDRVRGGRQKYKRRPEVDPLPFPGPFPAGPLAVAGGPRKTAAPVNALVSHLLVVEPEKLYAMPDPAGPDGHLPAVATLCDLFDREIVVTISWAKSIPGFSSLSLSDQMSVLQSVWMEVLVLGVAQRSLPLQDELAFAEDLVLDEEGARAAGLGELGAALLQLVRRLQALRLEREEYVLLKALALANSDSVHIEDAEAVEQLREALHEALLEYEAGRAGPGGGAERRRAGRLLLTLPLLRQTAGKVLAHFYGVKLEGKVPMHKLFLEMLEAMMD
Sequence of Vitamin D3 receptor (Homo sapiens) (P11473 whole entry): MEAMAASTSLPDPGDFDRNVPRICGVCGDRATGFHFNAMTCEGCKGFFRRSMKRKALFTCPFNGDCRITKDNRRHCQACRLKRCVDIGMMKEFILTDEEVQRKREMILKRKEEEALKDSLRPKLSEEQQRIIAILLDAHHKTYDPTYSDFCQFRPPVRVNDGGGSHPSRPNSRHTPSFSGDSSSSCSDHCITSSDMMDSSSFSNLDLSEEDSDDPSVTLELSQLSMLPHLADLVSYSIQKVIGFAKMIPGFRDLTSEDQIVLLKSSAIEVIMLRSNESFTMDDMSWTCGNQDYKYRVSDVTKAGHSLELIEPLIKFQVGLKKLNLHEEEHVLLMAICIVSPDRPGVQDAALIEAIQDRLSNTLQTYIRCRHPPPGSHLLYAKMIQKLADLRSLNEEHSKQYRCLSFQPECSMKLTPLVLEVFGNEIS
Sequence of Estrogen receptor beta (Homo sapiens) (Q92731 whole entry): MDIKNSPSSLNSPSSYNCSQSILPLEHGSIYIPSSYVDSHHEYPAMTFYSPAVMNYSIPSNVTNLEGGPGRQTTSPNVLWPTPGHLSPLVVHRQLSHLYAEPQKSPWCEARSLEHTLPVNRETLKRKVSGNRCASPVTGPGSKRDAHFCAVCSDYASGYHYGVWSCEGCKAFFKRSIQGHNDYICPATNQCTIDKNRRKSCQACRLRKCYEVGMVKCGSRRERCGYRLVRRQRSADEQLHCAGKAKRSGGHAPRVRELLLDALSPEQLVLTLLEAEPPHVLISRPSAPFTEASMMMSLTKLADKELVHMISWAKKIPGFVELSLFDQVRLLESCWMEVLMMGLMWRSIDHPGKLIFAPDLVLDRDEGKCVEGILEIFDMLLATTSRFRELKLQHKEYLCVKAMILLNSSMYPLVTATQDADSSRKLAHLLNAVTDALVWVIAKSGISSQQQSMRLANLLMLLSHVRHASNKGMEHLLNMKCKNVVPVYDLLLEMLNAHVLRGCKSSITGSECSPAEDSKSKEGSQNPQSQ

CC(C)OC(=O)C1=CN(C(=O)c2ccc(F)c(F)c2)CC(C)(C)c2c1[nH]c1ccccc21 [TUROFEXORATE ISOPROPYL]
Activity [1]: inactive
inhibition [2]: 27%
Activity (Mus musculus [3]): 62 mg/dL
AUC(0-t) [4]: 19.1 µM·h
Tmax [5]: 10 h
IC50 [6]: 10 µM
Activity [7]: inactive
Cmax [8]: 500 nM
Activity [9]: inactive
Tmax [10]: 1.2 min
Activity [11]: inactive
Activity (Mus musculus [12]): 19%
LBF (Rattus norvegicus): 10%
Activity [13]: inactive
